From patent US12667559B2, “Dihydronaphthyridinone compound, and preparation method therefor and medical use thereof” (GENFLEET THERAPEUTICS (SHANGHAI) INC., priority 2020, dated 2026)
Read-outs that look alike come from different tables or passages of the source.

Assays:
[1] = system: U937 cells; assay: Inhibitory activity against TNF-α induced programmed cell necrosis (U937 cells, CellTiter-Glo); assay type: cell-based, human; conditions: U937 cells, human TNF-α and Q-VD-Oph induced necrosis, 48 hours, survival rate, read-out: U937 IC50
[2] = system: L929 cells; assay: Inhibitory activity against TNF-α induced programmed necrosis of L929 cells (CellTiter-Glo); assay type: cell-based; conditions: Mus musculus, 30 ng/ml murine TNF-α and 15 μM Z-VAD, 6 hours, survival rate
Description: (§1) The U937 cell line used in the following test examples is from ATCC, with the number of CRL-1593.2, batch number of 63479999, and the culture medium of RPMI-1640+10% FBS. The L929 cell line used in the following test examples is from ATCC, with the number of CCL-1, batch number of 70001022, and the culture medium of MEM+10% FBS+1% PS. The reagents used, and suppliers and article numbers thereof are as follows: RPMI-1640, Gibco, 11875-093; FBS, Gibco, 10099-141; Trypsin-EDTA, Gibco, 25200-072; PS, Gibco, 15140-122; CellTiter Glo, Progema, G7573; DMSO, VWR AMRESCO, 0231-500ML; TNF-α protein (human, recombinant), Peprotech, 300-01A; Q-VD-Oph, MCE, HY-12305; V-shaped bottom plate, Corning, 3894; 384 well low flange white flat bottom polystyrene TC-treated microplates, Corning, 3570; RIPK1, Eurofins, 16-022; MOPS, BDH, 441644J; EDTA, Sigma, E5134; myelin basic protein, Sigma, M1891-25.00 MG; magnesium acetate, Merck, DU008026; ATP (non-radioactive label), Sigma, A-7699; ATP (radioactive label), Hartmann Analytic, DU008054; phosphoric acid, Metlab, DU003000; Z-VAD: Shanghai Twochem Co., Ltd., YA02401.
The compounds to be tested was dissolved in DMSO and prepared as a 10 mM stock solution, which was diluted 3.16 times with DMSO to form a series of concentration gradients, and then diluted 100 times with culture medium to make a working solution. 10,000 L929 cells/well were seeded on a 384-well white plate, and the corresponding concentration of compound was added to each well to mix with the cells uniformly. At the same time, 30 ng/ml murine TNF-α and 15 μM Z-VAD were added to induce programmed necrosis of the cells. The final concentration of DMSO was 0.2%, and the cells were placed in a 37° C., 5% CO2 incubator for further incubation for 6 hours. CellTiter-Glo reagent was used for detection. After the reaction was fully lysed, the chemiluminescence readings was detected by a microplate reader. The test results were calculated using the formula for survival rate: SR (%)=(RLU compound−RLU blank)/(RLU high control-RLU blank)×100%. The survival rate and the final concentration of the corresponding compound were plotted as a curve, and fitted using a four-parameter model to calculate the inhibitory IC50 of compounds on TNF-α-induced programmed cell necrosis.

[3] = target: T1, RIPK1 (Homo sapiens, UniProt Q13546); assay: Inhibitory activity against RIPK1 enzyme (33P-ATP, MBP substrate); assay type: biochemical; conditions: 36 nM RIPK1, 0.33 mg/ml MBP, 155 μM 33P-ATP, 2 hours, room temperature
T1 construct: purchased Eurofins 16-022
T1 sequence (Q13546 1-671): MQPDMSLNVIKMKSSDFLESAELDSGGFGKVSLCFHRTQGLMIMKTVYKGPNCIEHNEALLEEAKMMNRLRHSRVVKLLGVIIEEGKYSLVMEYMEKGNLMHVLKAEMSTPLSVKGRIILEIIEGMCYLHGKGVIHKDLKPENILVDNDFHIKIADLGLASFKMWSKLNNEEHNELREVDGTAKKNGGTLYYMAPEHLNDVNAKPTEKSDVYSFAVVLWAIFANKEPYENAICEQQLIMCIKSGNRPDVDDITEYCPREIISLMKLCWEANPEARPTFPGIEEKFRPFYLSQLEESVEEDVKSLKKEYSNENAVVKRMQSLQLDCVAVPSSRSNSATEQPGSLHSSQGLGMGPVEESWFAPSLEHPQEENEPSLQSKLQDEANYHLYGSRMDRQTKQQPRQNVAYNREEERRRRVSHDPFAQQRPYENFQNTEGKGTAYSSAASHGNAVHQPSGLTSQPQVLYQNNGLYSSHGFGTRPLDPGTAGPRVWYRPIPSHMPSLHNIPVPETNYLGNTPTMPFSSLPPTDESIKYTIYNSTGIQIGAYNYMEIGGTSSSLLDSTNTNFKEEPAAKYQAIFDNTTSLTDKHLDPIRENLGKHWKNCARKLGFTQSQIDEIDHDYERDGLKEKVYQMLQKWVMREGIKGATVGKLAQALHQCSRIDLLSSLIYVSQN
Description: as §1
The compounds to be tested was dissolved in DMSO to prepare a 10 mM stock solution, which was diluted 3.16 times with DMSO into a series of concentration gradients, and then diluted 50 times with MOPS buffer solution (pH 7.0) to prepare a working solution, which were mixed well with 36 nM RIPK1 (final concentration), and 0.33 mg/ml substrate MBP. 10 mM magnesium ions and 155 μM phosphorous 33 isotope-labeled ATP were added to the reaction. The final concentration of DMSO was 2%. After 2 hours of reaction at room temperature, phosphoric acid was added to stop the reaction. The final reaction system was processed and then detected with a liquid scintillation counter.

IC50 [3] [nM] | Structure (SMILES) | IC50 ([1]; Homo sapiens, U-937, 48 h) [nM] | IC50 [2] [nM] | IC50 ([1]; U-937) [nM]
– | CC(=O)Nc1cn2nc(-c3cnc4c(c3)C(=O)N(Cc3ccccc3OC(F)(F)F)CC4)ccc2n1 [Z5, N-(6-(5-oxo-6-(2-(trifluoromethoxy)benzyl)-5,6,7,8-tetrahydro-1,6-naphthyridin-3-yl)imidazo[1,2-b]pyridazin-2-yl)acetamide] | 46.7 | 8 | –
– | Nc1nc2cc(-c3cnc4c(c3)C(=O)N(Cc3cccnc3OC3CCCC3)CC4)ccn2n1 [Z47, 3-(2-amino-[1,2,4]triazole[1,5-a]pyridyl-7-yl)-6-((2-(cyclopentyloxy)pyridyl-3-yl)methyl)-7,8-dihydro-1,6-naphthyridin-5(6H)-one] | 3 | 5.1 | –
34 | C[C@H](c1cc(F)ccc1-c1cnn(C)c1)N1CCc2ncc(-c3ccn4nc(N)nc4c3)cc2C1=O (single isomer, unassigned) [Z85] | 4.3 | 13.4 | –
33 | Nc1nc2cc(-c3cnc4c(c3)C(=O)N(Cc3cc(F)cc(F)c3OC3CC3)CC4)ccn2n1 [Z69] | 1.4 | 3.7 | –
193 | C[C@H](c1ccc(F)cc1)n1cc(N2CCc3ncc(-c4ccn5nc(N)nc5c4)cc3C2=O)cn1 (single isomer, unassigned) [Z74] | 3.8 | 2.3 | –
– | Nc1nc2cc(-c3cnc4c(c3)C(=O)N(Cc3cc(F)ccc3OC3CCCC3)CC4)ccn2n1 [Z45, 3-(2-amino-[1,2,4]triazolo[1,5-a]pyridyl-7-yl)-6-(2-(cyclopentyloxy)-5-fluorobenzyl)-7,8-dihydro-1,6-naphthyridin-5(6H)-one] | 0.2 | 1.3 | –
72 | Cn1cc(-c2ccc(F)cc2CN2CCc3ncc(-c4ccn5nc(N)nc5c4)cc3C2=O)cn1 [Z51, 3-(2-amino-[1,2,4]triazolo[1,5-a]pyridyl-7-yl)-6-(5-fluoro-2-(1-methyl-1H-pyrazol-4-yl)benzyl)-7,8-dihydro-1,6-naphthyridin-5(6H)-one] | 24 | – | –
56 | O=C(Nc1cn2nc(-c3cnc4c(c3)C(=O)N(Cc3ccccc3OC(F)(F)F)CC4)ccc2n1)C1CC1 [Z10, N-(6-(5-oxo-6-(2-(trifluoromethoxy)benzyl)-5,6,7,8-tetrahydro-1,6-naphthyridin-3-yl)imidazo[1,2-b]pyridazin-2-yl)cyclopropanecarboxamide] | 5.9 | 2.4 | –
50 | Cc1c(-c2ccc(F)cc2CN2CCc3ncc(-c4ccn5nc(N)nc5c4)cc3C2=O)cnn1C [Z82] | 23.4 | – | –
37 | CC(=O)Nc1cn2nc(-c3cnc4c(c3)C(=O)N(Cc3cc(F)cc(F)c3OC3CCOCC3)CC4)ccc2n1 [Z2, N-(6-(6-(3,5-difluoro-2-((tetrahydro-2H-pyran-4-yl)oxy)benzyl)-5-oxo-5,6,7,8-tetrahydro-1,6-naphthyridin-3-yl)imidazo[1,2-b]pyridazin-2-yl)acetamide] | 0.103 | < 2.8 | –
– | CC(=O)Nc1cn2nc(-c3cnc4c(c3)C(=O)N(C(C)c3ccccc3OC(F)(F)F)CC4)ccc2n1 (stereo not drawn) [Z7, N-(6-(5-oxo-6-(1-(2-(trifluoromethoxy)phenyl)ethyl)-5,6,7,8-tetrahydro-1,6-naphthyridin-3-yl)imidazo[1,2-b]pyridazin-2-yl)acetamide] | 3.9 | – | –
– | Nc1nc2cc(-c3cnc4c(c3)C(=O)N(Cc3cccc(OC(F)(F)F)c3)CC4)ccn2n1 [Z50, 3-(2-amino-[1,2,4]triazolo[1,5-a]pyridyl-7-yl)-6-(3-(trifluoromethoxy)benzyl)-7,8-dihydro-1,6-naphthyridin-5(6H)-one] | – | – | 40
– | CNc1nc2cc(-c3cnc4c(c3)C(=O)N(Cc3cc(OC(F)(F)F)ccc3F)CC4)ccn2n1 [Z59, 6-(2-fluoro-5-(trifluoromethoxy)benzyl)-3-(2-(methylamino)-[1,2,4]triazolo[1,5-a]pyridyl-7-yl)-7,8-dihydro-1,6-naphthyridin-5(6H)-one] | – | – | 12
– | Nc1nc2cc(-c3cnc4c(c3)C(=O)N(Cc3cc(F)ccc3CN3CCOCC3)CC4)ccn2n1 [Z54, 3-(2-amino-[1,2,4]triazolo[1,5-a]pyridyl-7-yl)-6-(5-fluoro-2-(morpholinomethyl)benzyl)-7,8-dihydro-1,6-naphthyridin-5(6H)-one] | 12 | – | –
– | CC(=O)Nc1cn2nc(-c3cnc4c(c3)C(=O)N(Cc3cc(OC(F)(F)F)ccc3F)CC4)ccc2n1 [Z9, N-(6-(6-(2-fluoro-5-(trifluoromethoxy)benzyl)-5-oxo-5,6,7,8-tetrahydro-1,6-naphthyridin-3-yl)imidazo[1,2-b]pyridazin-2-yl)acetamide] | 10.4 | – | –
